This note sets out measurements from ChEMBL document CHEMBL5550204, “Discovery of ZJCK-6-46: A Potent, Selective, and Orally Available Dual-Specificity Tyrosine Phosphorylation-Regulated Kinase 1A Inhibitor for the Treatment of Alzheimer's Disease” (J Med Chem, 2024).

Active and inactive are the calls of the source. No cut-off for these calls is given here.

A short description of data set [1]: AUC (0 to infinity) in Sprague-Dawley rat at 2 mg/kg,iv measured upto 24 hrs by LC-MS/MS analysis. Format: ADME, organism-based. Particulars: in vivo.
Data set [2] can be described thus: Toxicity in okadaic acid-induced cognitive impairment C57BL/6 mouse assessed as change in serum AKP level at 10 to 30 mg/kg,po once daily for 2 weeks. Format: organism-based. Particulars: in vivo, 336 h, dose 10-30 mg/kg.
The next data set deals with Cytochrome P450 2C9 (Homo sapiens, UniProt P11712). In words: Inhibition of CYP2C9 in human liver microsomes using diclofenac as substrate preincubated for 10 mins followed by NADPH addition and measured after 40 mins by LC-MS/MS analysis. The data set is classed as ADME, Microsome. Background: Microsomes from liver hold many membrane-bound enzymes, among them those of drug oxidation.
Sequence of Cytochrome P450 2C9 (P11712 whole entry): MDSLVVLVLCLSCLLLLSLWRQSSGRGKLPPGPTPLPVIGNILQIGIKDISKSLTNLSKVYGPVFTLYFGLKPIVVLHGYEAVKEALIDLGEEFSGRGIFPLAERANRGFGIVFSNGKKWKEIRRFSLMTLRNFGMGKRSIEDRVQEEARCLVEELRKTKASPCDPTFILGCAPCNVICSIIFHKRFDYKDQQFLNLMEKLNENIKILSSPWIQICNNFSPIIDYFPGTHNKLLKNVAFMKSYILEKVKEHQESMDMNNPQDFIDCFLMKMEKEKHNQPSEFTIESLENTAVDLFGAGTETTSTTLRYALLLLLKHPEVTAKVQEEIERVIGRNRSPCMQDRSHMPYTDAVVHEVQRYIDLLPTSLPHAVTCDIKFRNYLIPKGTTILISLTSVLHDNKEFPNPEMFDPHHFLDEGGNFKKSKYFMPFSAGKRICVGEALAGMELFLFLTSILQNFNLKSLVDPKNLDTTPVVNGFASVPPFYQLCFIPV

The nature of data set [3]: Acute toxicity in C57BL/6 mouse assessed as change in spleen weight at 500 mg/kg,po observed after 14 days. To be noted: in vivo, 336 h, time 14 day. The data set is classed as organism-based.
In the next data set the target is CYP2C9 (Homo sapiens, UniProt P11712). In words: Inhibition of CYP2C9 in human liver microsomes using diclofenac as substrate at 10 uM preincubated for 10 mins followed by NADPH addition and measured after 40 mins by LC-MS/MS analysis relative to control. Format: ADME, Microsome. To be noted: probe diclofenac, time 50 min.
Sequence of CYP2C9 (P11712 whole entry): as above
Data set [4] is described as follows: Half life in Sprague-Dawley rat at 10 mg/kg,po measured upto 24 hrs by LC-MS/MS analysis. Format: ADME, organism-based. Particulars: in vivo.
The target of data set [5] is Dual specificity protein kinase CLK4 (Homo sapiens, UniProt Q9HAZ1). As to the kind of experiment: Inhibition of CLK4 (unknown origin) at 1 uM preincubated with enzyme for 10 mins followed by substrate and ATP addition measured after 60 mins by ADP-Glo reagent based assay relative to control. Particulars: time 70.0 min. For orientation: In ADP-Glo the light output rises with the ADP produced.
Sequence of Dual specificity protein kinase CLK4 (Q9HAZ1 whole entry, looked up): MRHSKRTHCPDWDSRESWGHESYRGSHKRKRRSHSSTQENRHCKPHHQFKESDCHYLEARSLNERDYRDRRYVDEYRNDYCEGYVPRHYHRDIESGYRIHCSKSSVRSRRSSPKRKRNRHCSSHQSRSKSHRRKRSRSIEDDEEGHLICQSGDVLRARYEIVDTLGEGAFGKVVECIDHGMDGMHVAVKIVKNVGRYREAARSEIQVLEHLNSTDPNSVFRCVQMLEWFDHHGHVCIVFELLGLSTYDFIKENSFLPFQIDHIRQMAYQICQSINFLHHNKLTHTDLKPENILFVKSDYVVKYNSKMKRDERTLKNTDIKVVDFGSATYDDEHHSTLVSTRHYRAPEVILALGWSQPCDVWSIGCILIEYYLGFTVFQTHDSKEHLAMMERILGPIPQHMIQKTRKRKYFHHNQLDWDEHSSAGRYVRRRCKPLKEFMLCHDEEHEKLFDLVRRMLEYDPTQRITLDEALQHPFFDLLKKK

Data set [6] can be described thus: Toxicity in okadaic acid-induced cognitive impairment C57BL/6 mouse assessed as change in serum AST level at 10 to 30 mg/kg,po once daily for 2 weeks. Format: organism-based. Particulars: in vivo, 336 h, dose 10-30 mg/kg.
Data set [7] is described as follows: Acute toxicity in C57BL/6 mouse assessed as histopathological change in heart at 500 mg/kg,po observed after 14 days by hematoxylin-eosin staining based analysis. Format: organism-based. Particulars: in vivo, 336 h, time 14 day.
Data set [8] deals with Dual specificity tyrosine-phosphorylation-regulated kinase 4 (Homo sapiens) (UniProt Q9NR20). In words: Inhibition of DYRK4 (unknown origin) at 1 uM preincubated with enzyme for 10 mins followed by substrate and ATP addition measured after 60 mins by ADP-Glo reagent based assay relative to control. To be noted: time 70.0 min.
Sequence of Dual specificity tyrosine-phosphorylation-regulated kinase 4 (Homo sapiens) (Q9NR20 whole entry): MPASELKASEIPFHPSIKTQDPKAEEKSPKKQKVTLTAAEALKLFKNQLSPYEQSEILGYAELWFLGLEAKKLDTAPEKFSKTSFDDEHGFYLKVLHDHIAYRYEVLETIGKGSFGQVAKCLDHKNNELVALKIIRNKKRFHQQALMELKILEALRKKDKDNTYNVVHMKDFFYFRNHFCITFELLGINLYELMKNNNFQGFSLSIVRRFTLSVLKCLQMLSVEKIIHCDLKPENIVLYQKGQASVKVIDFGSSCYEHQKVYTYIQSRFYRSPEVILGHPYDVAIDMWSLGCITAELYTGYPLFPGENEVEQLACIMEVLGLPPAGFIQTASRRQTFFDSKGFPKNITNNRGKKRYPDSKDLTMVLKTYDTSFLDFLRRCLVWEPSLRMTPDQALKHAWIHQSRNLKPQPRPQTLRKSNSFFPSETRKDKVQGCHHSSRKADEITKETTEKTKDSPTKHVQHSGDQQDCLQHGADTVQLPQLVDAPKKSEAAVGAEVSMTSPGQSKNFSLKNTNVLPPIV
Data set [9] can be described thus: Apparent permeability across basolateral to apical side in dog MDCK-MDR1 cells at 5 uM incubated for 90 mins by LC-MS/MS analysis. Format: ADME, cell-based, Canis lupus familiaris.
The test system of data set [10] is Mus musculus. As to the kind of experiment: Antialzheimer activity in okadaic acid-induced cognitive impairment C57BL/6 mouse assessed as change in swimming speed at 10 to 30 mg/kg,po once daily for 2 weeks by Morris water maze test. The data set is classed as functional, organism-based. To be noted: dose 10-30 mg/kg.
For data set [11], the target named is Dual specificity tyrosine-phosphorylation-regulated kinase 4 (Homo sapiens, UniProt Q9NR20). As to the kind of experiment: Inhibition of DYRK4 (unknown origin) preincubated with enzyme for 10 mins followed by substrate and ATP addition measured after 60 mins by ADP-Glo reagent based assay.
Sequence of Dual specificity tyrosine-phosphorylation-regulated kinase 4 (Q9NR20 whole entry): as above
Data set [12] in a line: Acute toxicity in C57BL/6 mouse assessed as histopathological change in spleen at 500 mg/kg,po observed after 14 days by hematoxylin-eosin staining based analysis. Particulars: in vivo, 336 h, time 14 day. The data set is classed as organism-based.
Data set [13] is described as follows: Apparent permeability across apical to basolateral side in dog MDCK-MDR1 cells at 5 uM incubated for 90 mins by LC-MS/MS analysis. The data set is classed as ADME, cell-based, Canis lupus familiaris.
A short description of data set [14]: MRT (0 to t) in Sprague-Dawley rat at 10 mg/kg,po measured upto 24 hrs by LC-MS/MS analysis. The data set is classed as ADME, organism-based. To be noted: in vivo.
Data set [15] relates to Mus musculus. In words: Antialzheimer activity in okadaic acid-induced cognitive impairment C57BL/6 mouse assessed as increase in number of platform crossing at 10 to 30 mg/kg,po measured after 7 days by Morris water maze test. The data set is classed as functional, organism-based. To be noted: dose 10-30 mg/kg, time 7.0 day.
Data set [16] addresses Dual specificity tyrosine-phosphorylation-regulated kinase 1B (Homo sapiens, UniProt Q9Y463). In words: Inhibition of DYRK1B (unknown origin) at 1 uM preincubated with enzyme for 10 mins followed by substrate and ATP addition measured after 60 mins by ADP-Glo reagent based assay relative to control. Particulars: time 70.0 min.
Data set [17] in a line: Toxicity in okadaic acid-induced cognitive impairment C57BL/6 mouse assessed as change in serum ALT level at 10 to 30 mg/kg,po once daily for 2 weeks. To be noted: in vivo, 336 h, dose 10-30 mg/kg. Format: organism-based.
The nature of data set [18]: Acute toxicity in C57BL/6 mouse assessed as change in kidney weight at 500 mg/kg,po observed after 14 days. The data set is classed as organism-based. Particulars: in vivo, 336 h, time 14 day.
A further data set deals with CYP2E1 (Homo sapiens, UniProt P05181). As to the kind of experiment: Inhibition of CYP2E1 in human liver microsomes using chlorzoxazone as substrate at 10 uM preincubated for 10 mins followed by NADPH addition and measured after 40 mins by LC-MS/MS analysis relative to control. Particulars: probe chlorzoxazone.
Sequence of CYP2E1 (P05181 whole entry): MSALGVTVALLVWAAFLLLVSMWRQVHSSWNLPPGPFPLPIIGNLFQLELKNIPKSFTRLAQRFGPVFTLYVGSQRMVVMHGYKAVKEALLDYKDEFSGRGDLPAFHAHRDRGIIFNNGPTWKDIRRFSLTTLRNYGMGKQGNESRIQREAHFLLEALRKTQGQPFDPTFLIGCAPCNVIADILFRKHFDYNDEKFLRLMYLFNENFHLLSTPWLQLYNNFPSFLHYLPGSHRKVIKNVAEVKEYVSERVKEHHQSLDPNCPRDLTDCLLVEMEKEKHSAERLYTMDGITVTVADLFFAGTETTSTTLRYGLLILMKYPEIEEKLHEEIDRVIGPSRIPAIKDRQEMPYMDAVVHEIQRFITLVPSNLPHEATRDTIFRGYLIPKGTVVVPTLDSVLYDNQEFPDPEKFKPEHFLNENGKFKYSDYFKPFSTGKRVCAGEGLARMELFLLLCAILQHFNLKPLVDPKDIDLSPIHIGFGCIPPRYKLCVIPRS
The nature of data set [19]: AUC (0 to t) in Sprague-Dawley rat at 10 mg/kg,po measured upto 24 hrs by LC-MS/MS analysis. The data set is classed as ADME, organism-based. To be noted: in vivo.

Sequence of Dual specificity tyrosine-phosphorylation-regulated kinase 1B (Q9Y463 whole entry, looked up): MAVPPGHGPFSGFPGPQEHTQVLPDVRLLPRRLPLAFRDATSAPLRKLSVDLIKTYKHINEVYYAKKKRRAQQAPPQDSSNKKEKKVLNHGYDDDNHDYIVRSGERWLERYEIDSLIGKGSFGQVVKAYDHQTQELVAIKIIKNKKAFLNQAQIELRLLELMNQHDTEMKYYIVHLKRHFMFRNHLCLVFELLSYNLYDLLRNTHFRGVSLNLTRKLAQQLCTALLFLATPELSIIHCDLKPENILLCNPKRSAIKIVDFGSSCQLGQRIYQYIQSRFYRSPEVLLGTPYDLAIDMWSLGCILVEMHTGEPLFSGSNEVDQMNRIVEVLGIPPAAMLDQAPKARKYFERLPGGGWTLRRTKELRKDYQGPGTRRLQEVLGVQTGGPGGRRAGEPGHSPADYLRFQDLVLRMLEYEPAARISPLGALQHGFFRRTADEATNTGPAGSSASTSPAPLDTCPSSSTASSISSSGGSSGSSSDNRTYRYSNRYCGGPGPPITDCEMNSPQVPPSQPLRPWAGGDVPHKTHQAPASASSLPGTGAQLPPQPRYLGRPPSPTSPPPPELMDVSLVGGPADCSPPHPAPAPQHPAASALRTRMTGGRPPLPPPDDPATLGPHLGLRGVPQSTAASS

Broadly, the AUC(0-inf) is total exposure, with the tail of the curve extrapolated. Lower therefore signals low exposure. In general, IC50 refers to the concentration needed to halve the response being measured. What is called inhibition is the relative decrease from the control value, in per cent. For orientation: half-life means how long it takes for the measured level to halve. Low values mean rapid decline, high ones slow decline. As a reminder, the Papp B→A is how fast a substance crosses the layer from the basolateral side. As a reminder, the Papp A→B is the apparent permeability from the apical to the basolateral side of a cell layer. As usually defined, the MRT last is a mean duration of stay, worked out from the concentration-time curve. As a reminder, the AUC(0-t) is exposure summed from dosing to a finite time, without extrapolation to infinity. Read a low AUC(0-t) as less exposure. In [1], `Cc1ccc2c(-c3ccc4ncnc(N[C@H](CO)c5ccccc5)c4c3)c[nH]c2n1` came in with an AUC(0-inf) of 1590 ng·h/mL. The Activity result in data set [2], in data set [3], in [6], in data set [7], in data set [12] and in data set [17] was “Non-Toxic” each time. For the same compound, in data set [18], the Activity result is listed as “Non-Toxic”. Also, the values for the concentration for half-maximal inhibition (IC50) (at Cytochrome P450 2C9; in data set [11]) were 240 nM and 401 nM, respectively. Also, the figures for the inhibition at 40 min, 10 µM against CYP2C9 and against CYP2E1 were 96.5% and 0.07%, respectively. The compound further gave a half-life in data set [4] of 3.95 h. Also, the inhibition amounted to 100% in data set [5], 102% in [8] and 100% in data set [16]. Besides, in data set [9], the basolateral-to-apical permeability (Papp B→A) at […], 5 µM came out at 30.6 ×10⁻⁶ cm/s. The result in the data set on Mus musculus [10] was inactive. For the same compound, in data set [13], the Papp A→B at […], 5 µM turned out to be 2.67 ×10⁻⁶ cm/s. In data set [14], this compound showed an MRT last at 24 h of 5.77 h. Further, in the data set on Mus musculus [15], the result was Active. The AUC(0-t) at 24 h in data set [19] is 2990 ng·h/mL.
